{"source": "patent US8207159B2", "about": "“Use of galanthamine for the treatment of pathological manifestations of the central nervous system based on intoxications with psychotropic substances” (priority 2001, dated 2012)", "key": {"[1]": {"system": "chronically dependent alcoholics", "assay": "Clinical studies on chronically dependent alcoholics, cognitive performance", "format": "in vivo, human", "text": "(§1) A further advantage in this connexion is in particular that better control over the addictive behaviour is made possible, so that the risk of relapse is reduced."}, "[2]": {"system": "rats", "assay": "Animal experiments: administration of galanthamine to rats, cognitive abilities", "format": "in vivo, rat", "settings": "restoration did not occur, or occurred only considerably later, in untreated control animals", "text": "as §1"}}}
{"smiles": "COc1ccc2c3c1O[C@H]1C[C@@H](O)C=C[C@@]31CCN(C)C2", "note": "[galanthamine, 4a,5,9,10,11,12-hexahydro-3-methoxy-11-methyl-6-H-benzofuro-(3a,3,2-ef)-(2)-benzazepin-6-ol]", "values": [{"measurement": "cognitive performance of the subjects", "setting": "[1]", "result": "general improvement in the cognitive performance"}, {"measurement": "recovery of cognitive abilities", "setting": "[2]", "result": "recovery of cognitive abilities"}]}
